Reference: patent US20030157040A1, “Use of ectoine or ectoine derivatives in cosmetic formulations” (Merck Patent GmbH, priority 1998, published 2003)
“And” between values parts separate entries of the source, which are not always exact repeats. Equal entries are not always repeated. “Also recorded” adds a separate entry of the source.

System: organotypical skin equivalents (Skinethic)
Assay: UV-induced formation of "sunburn cells" in organotypical skin equivalents
Assay type: cell-based
Conditions: for Number of counted "sunburn cells" in individual sections of the UV-irradiated skin equivalents / Number of counted "sunburn cells", mean M of six sections: pretreatment 24 h with ectoin 4%; for Number of counted "sunburn cells" in individual sections of the UV-irradiated skin equivalents: individual section
Protocol: An investigation is carried-out to determine whether ectoin has an inhibiting action on the UV-induced formation of “sunburn cells” in organotypical skin equivalents.
The investigations are carried out in accordance with the method described in A. R. Young, ‘The sunburn cell’, Photodermatology 4 (1987) 127-134. The cells used are organotypical skin models. Skinethic® skin equivalents from Skinethic, Nice, France (Lot. No. PK 2 DT 07 99 022A 0603) are used. Ectoin is weighed in directly prior to the start of the test and dissolved in the use concentration of 4% in EBSS (Gibco BRL; Order No. 15015 044). The organotypical skin equivalents (Skinethic) are, depending on the treatment group, incubated for 24 hours with or without ectoin (4%) at 37° C. and 5% CO2. The two treatment groups are then subjected to UV irradiation (0, 30, 60, 100, 200, 300 mJ/cm^2 of UVB) using a sun simulator (SOL 500, Dr. Hönle). Following incubation for a further 24 hours at 37° C. and 5% CO2, all skin equivalents are prepared histologically and investigated for induced “sunburn cells”.

## CC1=N[C@H](C(=O)O)CCN1 [ectoin, (S)-1,4,5,6-tetrahydro-2-methyl-4-pyrimidine-carboxylic acid]
Irradiation 0 mJ/cm^2 UVB
  Number of counted "sunburn cells" in individual sections of the UV-irradiated skin equivalents: 0
Irradiation 0 mJ/cm^2 UVB, mean of six sections
  Number of counted "sunburn cells", mean M of six sections: 0.00
Irradiation 30 mJ/cm^2 UVB
  Number of counted "sunburn cells" in individual sections of the UV-irradiated skin equivalents: 1 (2×) and 2 (2×) and 3 and 0
Irradiation 30 mJ/cm^2 UVB, mean of six sections
  Number of counted "sunburn cells", mean M of six sections: 1.50
Irradiation 60 mJ/cm^2 UVB
  Number of counted "sunburn cells" in individual sections of the UV-irradiated skin equivalents: 2 (2×) and 4 and 3 (3×)
Irradiation 60 mJ/cm^2 UVB, mean of six sections (per section)
  Number of counted "sunburn cells", mean M of six sections: 2.83±0.75 and 2.83
Irradiation 100 mJ/cm^2 UVB
  Number of counted "sunburn cells" in individual sections of the UV-irradiated skin equivalents: 9 (2×) and 10 (2×) and 8 (2×)
Irradiation 100 mJ/cm^2 UVB, mean of six sections (per section)
  Number of counted "sunburn cells", mean M of six sections: 9±0.89 and 9.00
Irradiation 200 mJ/cm^2 UVB
  Number of counted "sunburn cells" in individual sections of the UV-irradiated skin equivalents: 39 (2×) and 32 (2×) and 35 and 34
Irradiation 200 mJ/cm^2 UVB, mean of six sections (per section)
  Number of counted "sunburn cells", mean M of six sections: 35.17±3.19 and 35.17
Irradiation 300 mJ/cm^2 UVB
  Number of counted "sunburn cells" in individual sections of the UV-irradiated skin equivalents: >100 (5×) and <100
Irradiation 300 mJ/cm^2 UVB, mean of six sections
  Number of counted "sunburn cells", mean M of six sections: >100
Pretreatment with ectoin versus no pretreatment, 0-300 mJ/cm^2 UVB
  dose-effect relationship between the rate of formation of SBCs and the administered UV dose: shifted significantly to higher UV dose ranges; also recorded: significantly into higher UV dose ranges
